Results taken from publication PMC3525726 (Cancer research, 2012).

Key:
Assay type in all cases: biochemical
ABCC10 (MRP7) [1] = molecular target: T1, ABCC10 (MRP7) (Homo sapiens, UniProt Q5T3U5); assay: Pi release ATPase inhibition assay; conditions: read-out: % inhibition at 0.625 μM
T1 sequence (Q5T3U5 1-1492): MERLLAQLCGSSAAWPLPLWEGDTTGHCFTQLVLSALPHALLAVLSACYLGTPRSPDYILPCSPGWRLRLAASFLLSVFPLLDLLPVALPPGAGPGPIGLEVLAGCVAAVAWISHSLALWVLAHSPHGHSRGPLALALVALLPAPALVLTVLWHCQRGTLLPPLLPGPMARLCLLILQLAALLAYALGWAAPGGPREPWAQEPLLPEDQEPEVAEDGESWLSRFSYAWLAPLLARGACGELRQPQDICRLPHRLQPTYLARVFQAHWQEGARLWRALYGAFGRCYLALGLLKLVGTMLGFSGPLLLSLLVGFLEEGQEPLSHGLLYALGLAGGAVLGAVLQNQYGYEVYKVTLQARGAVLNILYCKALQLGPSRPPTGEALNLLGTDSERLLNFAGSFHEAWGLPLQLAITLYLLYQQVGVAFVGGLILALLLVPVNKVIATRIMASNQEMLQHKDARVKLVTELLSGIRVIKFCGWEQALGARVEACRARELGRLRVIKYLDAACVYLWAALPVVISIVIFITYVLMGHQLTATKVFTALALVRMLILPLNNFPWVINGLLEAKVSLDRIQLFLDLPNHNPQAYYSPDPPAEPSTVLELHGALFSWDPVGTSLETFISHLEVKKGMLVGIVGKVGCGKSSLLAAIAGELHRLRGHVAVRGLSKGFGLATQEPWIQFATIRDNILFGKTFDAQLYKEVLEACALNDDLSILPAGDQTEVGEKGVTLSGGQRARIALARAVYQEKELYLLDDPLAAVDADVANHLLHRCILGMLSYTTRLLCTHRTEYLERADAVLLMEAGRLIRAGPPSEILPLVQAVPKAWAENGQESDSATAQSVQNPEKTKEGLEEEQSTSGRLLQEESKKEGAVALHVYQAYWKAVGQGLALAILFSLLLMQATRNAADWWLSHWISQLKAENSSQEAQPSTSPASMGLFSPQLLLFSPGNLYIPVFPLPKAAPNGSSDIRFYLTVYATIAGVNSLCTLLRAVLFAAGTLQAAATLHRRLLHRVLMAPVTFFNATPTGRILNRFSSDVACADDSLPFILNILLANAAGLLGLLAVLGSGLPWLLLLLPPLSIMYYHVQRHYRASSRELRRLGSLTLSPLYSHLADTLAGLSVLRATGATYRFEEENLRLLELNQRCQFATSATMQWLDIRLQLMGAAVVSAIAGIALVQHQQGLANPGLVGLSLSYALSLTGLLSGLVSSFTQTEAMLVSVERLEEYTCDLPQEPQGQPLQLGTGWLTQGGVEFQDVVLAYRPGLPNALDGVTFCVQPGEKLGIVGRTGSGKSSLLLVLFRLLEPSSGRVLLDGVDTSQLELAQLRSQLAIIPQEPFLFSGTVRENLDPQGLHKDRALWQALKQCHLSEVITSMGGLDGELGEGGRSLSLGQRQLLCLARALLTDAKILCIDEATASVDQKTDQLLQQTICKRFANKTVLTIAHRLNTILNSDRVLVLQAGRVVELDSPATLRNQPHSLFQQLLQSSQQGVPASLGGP

ABCC10 (MRP7) [2] = molecular target: T1, ABCC10 (MRP7); assay: Pi release ATPase inhibition assay; conditions: 5 mM ATP, Mg2+, pH 7.5, 37 °C; crude membranes
ABCC10 (MRP7) [3] = molecular target: T1, ABCC10 (MRP7); assay: Pi release ATPase stimulation assay; conditions: 5 mM ATP, Mg2+, pH 7.5, 37 °C; crude membranes
ABCC10 (MRP7) [4] = molecular target: T1, ABCC10 (MRP7); assay: Pi release ATPase stimulation assay; conditions: 5 mM ATP, Mg2+, pH 7.5, 37 °C; crude membranes; remark: listed apart in the source
ABCC10 (MRP7) [5] = molecular target: T1, ABCC10 (MRP7); assay: Pi release ATPase stimulation assay; conditions: 5 mM ATP, Mg2+, pH 7.5, 37 °C; crude membranes; remark: listed apart in the source

Cc1cn(-c2cc(NC(=O)c3ccc(C)c(Nc4nccc(-c5cccnc5)n4)c3)cc(C(F)(F)F)c2)cn1 [nilotinib]
inhibition at 0.625 µM (ABCC10 (MRP7) [1]): 41.4%

CNC(=O)c1cc(Oc2ccc(NC(=O)Nc3ccc(Cl)c(C(F)(F)F)c3)cc2)ccn1 [sorafenib]
% inhibition at 5 μM (ABCC10 (MRP7) [2]): cepharanthine, sorafenib, imatinib, nilotinib, erlotinib and lapatinib were effective inhibitors of ABCC10 ATPase activity

Cc1ccc(NC(=O)c2ccc(CN3CCN(C)CC3)cc2)cc1Nc1nccc(-c2cccnc2)n1 [imatinib]
% inhibition at 5 μM (ABCC10 (MRP7) [2]): cepharanthine, sorafenib, imatinib, nilotinib, erlotinib and lapatinib were effective inhibitors of ABCC10 ATPase activity

CC(=O)O[C@@]12CO[C@@H]1C[C@H](O)[C@@]1(C)C(=O)[C@H](O)C3=C(C)[C@@H](OC(=O)[C@H](O)[C@@H](NC(=O)OC(C)(C)C)c4ccccc4)C[C@@](O)([C@@H](OC(=O)c4ccccc4)[C@H]21)C3(C)C [docetaxel]
% stimulation of ATPase activity at 5 μM (ABCC10 (MRP7) [3]): 24.38%

C[C@]12CC[C@@H]3c4ccc(O)cc4CC[C@H]3[C@@H]1CC[C@@H]2O[C@@H]1O[C@H](C(=O)O)[C@@H](O)[C@H](O)[C@H]1O [E217βG]
% stimulation of ATPase activity (ABCC10 (MRP7) [4]): 30%

CC(=O)O[C@H]1C(=O)[C@@]2(C)[C@H]([C@H](OC(=O)c3ccccc3)[C@]3(O)C[C@H](OC(=O)[C@H](O)[C@@H](NC(=O)c4ccccc4)c4ccccc4)C(C)=C1C3(C)C)[C@]1(OC(C)=O)CO[C@@H]1C[C@@H]2O [paclitaxel]
% stimulation of ATPase activity at 5 μM (ABCC10 (MRP7) [3]): 15%

C#Cc1cccc(Nc2ncnc3cc(OCCOC)c(OCCOC)cc23)c1 [erlotinib]
inhibition at 0.625 µM (ABCC10 (MRP7) [1]): 47%

Nc1ccn([C@@H]2O[C@H](CO)[C@@H](O)[C@@H]2O)c(=O)n1 [Ara-C]
% stimulation of ATPase activity at 0.625 μM (ABCC10 (MRP7) [5]): 31.8%
